According to patent US11331368B2, “Angiotensin receptor agonists and uses thereof” (Monash University, priority 2017, dated 2022):
Entries after “also recorded” stand apart in the source; their conditions may differ. Square brackets hold non-standard residues; d marks the D form. Ends that are not written are not given here. βVal = β-valine (β-amino acid form of Val)

Assays:
[1] = biological target: T1, human AT1R (Homo sapiens, UniProt P30556); experiment: Competition radioligand binding (125I-Sar1-Ile8-AngII) in AT1R-transfected HEK-293 cells
T1 construct: expressed in transfected cells
T1 sequence (P30556 1-359): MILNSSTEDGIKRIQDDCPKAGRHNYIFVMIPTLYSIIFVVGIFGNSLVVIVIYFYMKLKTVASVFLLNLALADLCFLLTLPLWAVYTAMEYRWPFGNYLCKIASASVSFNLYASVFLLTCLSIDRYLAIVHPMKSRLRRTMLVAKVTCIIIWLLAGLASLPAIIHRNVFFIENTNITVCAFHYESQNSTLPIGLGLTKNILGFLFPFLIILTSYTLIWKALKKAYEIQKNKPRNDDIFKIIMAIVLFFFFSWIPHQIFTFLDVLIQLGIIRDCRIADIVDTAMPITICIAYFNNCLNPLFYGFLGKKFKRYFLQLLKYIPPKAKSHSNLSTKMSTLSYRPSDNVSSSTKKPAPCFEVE

[2] = biological target: T2, human AT2R (Homo sapiens, UniProt P50052); experiment: Competition radioligand binding (125I-Sar1-Ile8-AngII) in AT2R-transfected HEK-293 cells; conditions: transfected HEK-293 cells
T2 construct: expressed in transfected cells
T2 sequence (P50052 1-363): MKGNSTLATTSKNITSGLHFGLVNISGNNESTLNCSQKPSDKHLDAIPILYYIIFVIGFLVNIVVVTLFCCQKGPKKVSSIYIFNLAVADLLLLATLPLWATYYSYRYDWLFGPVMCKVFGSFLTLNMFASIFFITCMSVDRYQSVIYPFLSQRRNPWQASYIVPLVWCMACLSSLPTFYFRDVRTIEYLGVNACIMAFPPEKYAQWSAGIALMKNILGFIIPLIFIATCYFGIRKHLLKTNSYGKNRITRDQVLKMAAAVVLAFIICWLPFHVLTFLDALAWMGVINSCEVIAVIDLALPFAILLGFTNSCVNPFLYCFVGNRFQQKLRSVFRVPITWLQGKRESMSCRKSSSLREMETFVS
Procedure: This will lead to the generation of IC50 values that determine the relative ability of test compounds to interact with both Angiotensin receptors.
Cells were grown to approximately 80% confluence before being re-plated into 48 well plates at 1×10^5 cells/well and grown for 48 hours at 37° C. for a whole cell competition binding assay. [125I]-Sar1Ile8Ang II at 50,000 cpm, incubated for 45 minutes at 37° C., in the absence or presence of unlabeled ligands, prepared in binding buffer (DMEM, 0.1% BSA), were used in the competition assays at concentrations ranging from 1 μM to 10 μM. For each experiment, each ligand concentration was tested in duplicate or triplicate, and each experiment was repeated at least 3 separate times. […] The ability of each ligand to inhibit specific binding of [125I]-Sar1Ile8Ang II was measured on a gamma counter with all counts corrected for NSB.

[3] = In vitro plasma stability assay (rat plasma); assay type: in vitro ADME; conditions: plasma from male spontaneously hypertensive rats (SHR), read-out: Plasma stability (t1/2)
Procedure: Proteolytic stability may be tested in a plasma stability assay used to assess the susceptibility of a peptide described herein to plasma proteases. Plasma stability may be tested using methods described herein. For example, a sample of rat plasma may be incubated with peptide of interest (final concentration was 1 mg/mL; plasma diluted by 10% with peptide dissolved in saline). Protease activity is then quenched in samples by the addition of acetonitrile, at selected time intervals. The amount of parent compound remaining at each time point can then be assayed on an Agilent 1100 MSD SL ion trap mass spectrometer. The peaks observed in the resulting chromatograms are integrated, compared to a standard curve, and cross-checked by mass and retention time (Jones et al 2011 Hypertension. 57: 570-576).
B) Proteolytic stability was tested in a plasma stability assay used to assess the susceptibility of Ang II peptides to plasma proteases. A sample of rat plasma was incubated with peptide of interest (final concentration was 1 mg/mL; plasma diluted by 10% with peptide dissolved in saline). Protease activity was quenched in samples by the addition of acetonitrile, at selected time intervals. The amount of parent compound remaining at each time point was then assayed on an Agilent 1100 MSD SL ion trap mass spectrometer. […]

[4] = system: male FVB/N mice on high salt diet, heart; experiment: High salt (5%) diet intervention model, heart; assay type: in vivo, mouse; conditions: for expression of P-IκBα (marker for NFκB activation) in heart: peptides 75 pmol/kg/min s.c.; for cardiac fibrosis (picrosirius red): weeks 5-8 of high salt diet, peptides 75 pmol/kg/min s.c. mini-pump, captopril 3 mg/kg/day in drinking water
How it was run: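 Male FVB/N mice fed 5% salt diet for 8 weeks (controls 0.35% NaCl); from week 4, AT2R agonist at 75 pmol/kg/min or saline given subcutaneously by osmotic minipump for 4 weeks on continued high salt. Heart collagen by picrosirius red, % interstitial staining averaged over eight fields; immunofluorescence for fibrosis/inflammation markers.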

[5] = system: male FVB/N mice on high salt diet, kidney; experiment: High salt (5%) diet intervention model, kidney; assay type: in vivo, mouse; conditions: 75 pmol/kg/min s.c., weeks 5-8
Procedure: (§1) C) In the intervention (or reversal) model, male FVB/N mice were treated with selective AT2Rs agonists after the establishment of cardiovascular disease using a high salt diet, in order to reverse cardiovascular pathologies. In some experiments, the ACE inhibitor captopril (dose) or the ARB candesartan cilexetil (dose) were given for 4 weeks in drinking water. Organs examined included heart, kidney and liver and these were compared to either untreated mice or high salt-fed mice that were treated with saline.
(§2) Mice were placed on either a normal rodent diet (0.35% NaCl) which acted as control or a high salt diet (5% sodium in food chow) for 8 weeks. After 4 weeks, mice were also treated subcutaneously (via osmotic mini-pump) with either saline or an AT2R agonist (75 pmol/kg/min subcutaneously) for 4 weeks. Mice continued to be fed a high salt diet whilst receiving these treatments.
To measure collagen deposition, frozen sections of heart, kidney or aorta (all 5 μm thickness) were air dried for 10 minutes and were brought through 3 times xylene (2 minutes each), and 3 times absolute alcohol washes before being rinsed in tap H2O for 30 seconds. Staining with an optimal concentration of picrosirius red (in this instance 0.05% picrosirius red diluted in saturated picric acid) was performed and left for an hour. Sections were then rinsed in water and differentiated in 0.01M HCl for 2 minutes, followed by dehydration via 3 times absolute alcohol washes. Then, slides were brought through 3 times xylene washes before being cover slipped according to standard histological techniques using DPX as the mounting medium. Images were taken under ×20 magnification, using bright field (Olympus, BX51) and circularized polarized light microscopy (DM IRB, Leica) while percentage of positive interstitial collagen staining per total field of view was quantified using ImageJ 1.46 software (Java, NIH), and averaged out from a total of eight views as the final percentage collagen content in a particular animal.
Kidney sections used either picrosirius red staining as described above or using Mason's Trichrome staining as described below.
Formalin fixed, paraffin embedded kidneys were sectioned at thickness of 4 μm and were stained with Masson's trichrome according to standard procedures for analysis of kidney fibrosis. […] Sections were re-fixed in Bouin's solution for 1 hour at 56° C. to improve staining quality then rinsed in running tap water for 5-10 minutes to remove yellow colour. Following this, sections were stained in Weigert's iron hematoxylin working solution for 10 minutes. Rinsed in running warm tap water for 10 minutes. Washed in distilled water. Stained in Biebrich scarlet-acid fuchsin solution for 10-15 minutes. Washed in distilled water. Differentiated in phosphomolybdic-phosphotungstic acid solution for 10-15 minutes or until collagen was no longer red. Sections were transferred directly (without rinse) to aniline blue solution and stained for 5-10 minutes. Rinsed briefly in distilled water and differentiated in 1% acetic acid solution for 2-5 minutes. Washed in distilled water. […] Mounted with DPX mounting medium.
Quantification of kidney fibrosis was performed using images captured with the Aperio scanner (Monash Histology Platform, Monash University), with ×5 magnification. Each kidney section had 5 different fields of view photographed at this magnification. Percentage of tubulointerstitial collagen was analysed and quantified using ImageJ 1.48 software (Java, NIH), and the percentage from 5 random fields of view were averaged for final percentage of collagen for that particular animal. All analysis of collagen expression was conducted in a blinded fashion.

[6] = system: male FVB/N mice on high salt diet, kidney; experiment: High salt (5%) diet intervention model, kidney; assay type: in vivo, mouse; conditions: 75 pmol/kg/min s.c., weeks 5-8; remark: listed apart in the source
[7] = system: male FVB/N mice on high salt diet, liver; experiment: High salt (5%) diet intervention model, liver; assay type: in vivo, mouse; conditions: weeks 5-8, peptides 75 pmol/kg/min s.c., Cand 2 mg/kg/day, captopril 3 mg/kg/day
Procedure: as §1, §2
Liver sections used either picrosirius red staining or Masson's trichome staining as described above. Higher concentrations of picrosirius red were often used under polarized light microscopy. The liver was removed and sectioned with half of the liver placed in 10% formalin and the rest frozen in liquid nitrogen before being stored in ˜80° C. freezer for future use. Formalin fixed, paraffin embedded livers were sectioned at thickness of 4 μm and were stained with Masson's trichrome according to standard procedures for analysis of liver fibrosis. […] Sections were re-fixed in Bouin's solution for 1 hour at 56° C. to improve staining quality then rinsed in running tap water for 5-10 minutes to remove yellow colour. Following this, sections were stained in Weigert's iron hematoxylin working solution for 10 minutes. Rinsed in running warm tap water for 10 minutes. Washed in distilled water. Stained in Biebrich scarlet-acid fuchsin solution for 10-15 minutes.
Washed in distilled water. Differentiated in phosphomolybdic-phosphotungstic acid solution for 10-15 minutes or until collagen was no longer red. Sections were transferred directly (without rinse) to aniline blue solution and stained for 5-10 minutes. Rinsed briefly in distilled water and differentiated in 1% acetic acid solution for 2-5 minutes. Washed in distilled water. […] Mounted with DPX mounting medium. Quantification of liver fibrosis was performed using images captured with the Aperio scanner (Monash Histology Platform, Monash University), with ×5 magnification. Each liver section had 5 different fields of view photographed at this magnification. Percentage of interstitial and perivascular collagen was analysed and quantified using ImageJ 1.48 software (Java, NIH), and the percentage from 5 random fields of view were averaged for final percentage of collagen for that particular animal. All analysis of collagen expression was conducted in a blinded fashion.

[8] = Systolic blood pressure by tail-cuff in high salt-fed mice; assay type: in vivo, mouse; conditions: data not shown
Procedure: The incision area was sutured with 6/0 DY silk ([…] Ltd) and antibiotic powder applied ([…], Pfizer) followed by intramuscular injection of the analgesic Cartrophen (0.1 ml of a 1.5 mg/ml stock solution; Biopharm Australia). Systolic blood pressure (SBP) was measured using non-invasive tail-cuff plethysmography apparatus (MC4000 Blood Pressure Analysis System, Hatteras Instrument Inc) before drug treatment (week 0), and then fortnightly. At the end of the 8 week treatment period mice were weighed before being killed by overdose of isoflurane inhalation and cervical dislocation. […] To this end, modified Ang peptides of interest were dissolved in saline and delivered subcutaneously via an implanted osmotic minipump and systolic blood pressure (SBP) was measured fortnightly.

[9] = biological target: T3, human Angiotensin II Receptor Type 1 (AT1R) (human, UniProt P30556 1-359); experiment: competition radioligand binding on HEK-293 cells with AT1R; competitor [125I]-Sar1Ile8Ang II
T3 construct: whole, on cells; also endogenous on human cardiac fibroblasts (functional entry); also called AT1 receptor
T3 sequence (looked up): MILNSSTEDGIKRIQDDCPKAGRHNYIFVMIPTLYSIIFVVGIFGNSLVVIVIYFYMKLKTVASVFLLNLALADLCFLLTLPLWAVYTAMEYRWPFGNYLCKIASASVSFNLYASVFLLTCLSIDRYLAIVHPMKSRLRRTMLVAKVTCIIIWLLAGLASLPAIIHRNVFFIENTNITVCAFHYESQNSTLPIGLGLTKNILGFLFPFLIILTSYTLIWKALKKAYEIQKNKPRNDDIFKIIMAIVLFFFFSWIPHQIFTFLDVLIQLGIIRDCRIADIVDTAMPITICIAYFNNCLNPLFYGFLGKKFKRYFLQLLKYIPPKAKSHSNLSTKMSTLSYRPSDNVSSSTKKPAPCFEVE
Procedure: For each experiment, each ligand concentration was tested in duplicate or triplicate, and each experiment was repeated at least 3 separate times.

CC[C@H](C)[C@H](NC(=O)[C@H](Cc1ccc(O)cc1)NC(=O)[C@@H](NC(=O)[C@H](CCCNC(=N)N)NC(C)=O)C(C)C)C(=O)N[C@@H](Cc1c[nH]cn1)C(=O)N1CCC[C@H]1CC(=O)N[C@@H](Cc1c[nH]c2ccccc12)C(=O)O [NAc-βPro-Trp-8-Ang III, NAc--Arg-Val-Tyr-Ile-His-β-Pro-Trp]
binding at AT1R (displacement of 125I-Sar1-Ile8-AngII), in words [1]: bind poorly | binding at AT2R (displacement of 125I-Sar1-Ile8-AngII), in words [2]: high affinity | half-life at 1 mg/mL [3]: 25.8 h | cardiac fibrosis by hydroxyproline analysis (LV collagen content) ([4]; 75 pmol/kg/min s.c., weeks 5-8): reversed the pro-fibrotic effects of high salt in the heart | cardiac oxidative stress (DHE staining) ([4]; 75 pmol/kg/min s.c., weeks 5-8): reversed the oxidative stress effects of high salt in the heart | myofibroblast differentiation in heart (α-SMA) ([4]; 75 pmol/kg/min s.c., weeks 5-8): reversed myofibroblast differentiation | expression of P-IκBα (marker for NFκB activation) in heart ([4]; weeks 5-8, Cand 2 mg/kg/day, captopril 3 mg/kg/day): reversed | cardiac fibrosis (picrosirius red) ([4]; Cand 2 mg/kg/day): reversed cardiac fibrosis | kidney glomerular fibrosis (picrosirius red) [5]: reversed the glomerular fibrosis caused by high salt in the kidney | kidney tubulointerstitial fibrosis (picrosirius red) [5]: reversed the tubulointerstitial fibrosis caused by high salt in the kidney | macrophage infiltration in kidney (F4/80) [6]: reversed high salt-induced macrophage infiltration in the kidney | renal fibrosis by hydroxyproline analysis [6]: reversed the pro-fibrotic effects of high salt in the kidney | renal inflammation (phospho-IκBα expression) [6]: reversed high salt-induced renal inflammation in the kidney

CC[C@H](C)[C@@H](CC(=O)N[C@@H](Cc1c[nH]cn1)C(=O)N1CCC[C@H]1C(=O)N[C@@H](Cc1ccccc1)C(=O)O)NC(=O)[C@H](Cc1ccc(O)cc1)NC(=O)[C@@H](NC(=O)[C@H](CCCNC(=N)N)NC(=O)[C@@H](N)CC(=O)O)C(C)C [βIle-Ang II, Asp-Arg-Val-Tyr-β-Ile-His-Pro-Phe]
TGF-β1 protein in the heart (Western blot) ([4]; 75 pmol/kg/min s.c., weeks 5-8): significantly lower TGF-β1 protein | myofibroblast differentiation in heart (α-SMA) ([4]; 75 pmol/kg/min s.c., weeks 5-8): reduced myofibroblast differentiation | MMP-13 protein expression in heart (Western blot) ([4]; weeks 5-8, peptide 75 pmol/kg/min s.c., Cand 2 mg/kg/day, captopril 3 mg/kg/day): normalised MMP-13 to levels observed in the normal salt group | macrophage infiltration/expression in heart (F4/80) ([4]; weeks 5-8, peptide 75 pmol/kg/min s.c., Cand 2 mg/kg/day, captopril 3 mg/kg/day, listed as β-Ile^5-Ang II): reversed by all agents; also recorded: reduced macrophage infiltration/expression | expression of P-IκBα (marker for NFκB activation) in heart ([4]; weeks 5-8, Cand 2 mg/kg/day, captopril 3 mg/kg/day, listed as β-Ile^5-Ang II): significantly reduced expression of P-IκBα | cardiac fibrosis (picrosirius red) ([4]; Cand 2 mg/kg/day, listed as β-Ile^5-Ang II): reversed high salt-induced cardiac fibrosis | kidney tubulointerstitial fibrosis (Masson's trichrome) [5]: reversed high salt-induced tubulointerstitial fibrosis | liver steatosis (Oil Red O) [7]: significantly reduced excess lipid accumulation | liver fibrosis (picrosirius red, polarized light) ([7]; listed as 8-Ile^5-Ang II): reversed collagen accumulation to levels seen in normal salt group | liver fibrosis (picrosirius red, polarized light) ([7]; listed as β-Ile^5-Ang II): similarly inhibited the pro-fibrotic effects of high salt in the liver | systolic blood pressure (SBP) [8]: did not alter SBP | macrophage infiltration in kidney (F4/80) [6]: reversed

B1: βVal-Trp-8-Ang III (peptide)
peptide: R[βVal]YIHPW
notes: synthetic peptide; also called Arg-β-Val-Tyr-Ile-His-Pro-Trp
IC50 [9]: 1.21 µM
